Measurements: PubChem BioAssay (NCI)
Where “and” joins values, the source holds several entries; their conditions need not be identical. Equal values may be shown once.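 Exposure lasted 48 hours, with cells grown in 96-well plates and compounds tested at five concentrations. The concentration for full growth arrest is given as TGI.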

Legend:
Assay in all cases: inhibition of tumour cell growth, NCI panel, 48 h
[1] = tested on: RXF 393 renal
[2] = tested on: SF-295 CNS
[3] = tested on: HCT-15 colon
[4] = tested on: UACC-62 melanoma
[5] = tested on: NCI-H522 lung
[6] = tested on: SK-OV-3 ovarian
[7] = tested on: RPMI-8226 leukemia
[8] = tested on: SK-MEL-5 melanoma
[9] = tested on: KM12 colon
[10] = tested on: IGROV1 ovarian
[11] = tested on: EKVX NSCLC
[12] = tested on: NCI-H460 lung
[13] = tested on: SK-MEL-28 melanoma
[14] = tested on: HOP-92 NSCLC
[15] = tested on: T-47D breast
[16] = tested on: MDA-N
[17] = tested on: A498 renal
[18] = tested on: HCT-116 colon
[19] = tested on: SNB-75 CNS
[20] = tested on: CAKI-1 renal
[21] = tested on: LOX IMVI melanoma
[22] = tested on: MOLT-4 leukemia
[23] = tested on: SN12C renal
[24] = tested on: M19-MEL melanoma
[25] = tested on: HS 578T breast
[26] = tested on: ACHN renal
[27] = tested on: SF-268 CNS
[28] = tested on: HOP-18 NSCLC
[29] = tested on: M14 melanoma
[30] = tested on: A549 NSCLC
[31] = tested on: SNB-78 CNS
[32] = tested on: MDA-MB-231 breast
[33] = tested on: OVCAR-3 ovarian
[34] = tested on: OVCAR-8 ovarian
[35] = tested on: NCI-H226 lung
[36] = tested on: NCI-H23 lung
[37] = tested on: SR leukemia
[38] = tested on: DU-145 prostate
[39] = tested on: HT29 colon
[40] = tested on: BT-549 breast
[41] = tested on: LXFL 529 NSCLC
[42] = tested on: TK-10 renal
[43] = tested on: UO-31 renal
[44] = tested on: HL-60(TB) leukemia
[45] = tested on: K-562 leukemia
[46] = tested on: DMS 114 small cell lung
[47] = tested on: MCF7 breast
[48] = tested on: DLD-1 colon
[49] = tested on: SF-539 CNS
[50] = tested on: HOP-62 NSCLC
[51] = tested on: OVCAR-5 ovarian
[52] = tested on: MALME-3M melanoma
[53] = tested on: UACC-257 melanoma
[54] = tested on: SK-MEL-2 melanoma
[55] = tested on: COLO 205 colon
[56] = tested on: U251 CNS
[57] = tested on: HCC-2998 colon
[58] = tested on: 786-0 renal
[59] = tested on: CCRF-CEM leukemia
[60] = tested on: KM20L2 colon
[61] = tested on: PC-3 prostate
[62] = tested on: SNB-19 CNS
[63] = tested on: OVCAR-4 ovarian
[64] = tested on: SW-620 colon
[65] = tested on: DMS 273 small cell lung

Q: What does the source list for `C=C[C@]1(C)CC(O)C2C(=C)C(=O)OC2[C@H]1C(=C)C=O` (some centres not stated)?
A: TGI [1]: 4.83 µM; TGI [2]: 30.2 µM; TGI [3]: 7.22 µM; TGI [4]: 3.83 µM; TGI [5]: 2350 nM; TGI [6]: 66.2 µM; TGI [7]: 5.94 µM; TGI [8]: 6.66 µM; TGI [9]: 12500 nM; TGI [10]: 25 µM; TGI [11]: 33.7 µM; TGI [12]: 31.8 µM; TGI [13]: 4.37 µM; TGI [14]: 6.08 µM; TGI [15]: 9.35 µM; TGI [16]: 36.8 µM; TGI [17]: 14.7 µM; TGI [18]: 3.26 µM; TGI [19]: 47.9 µM; TGI [20]: 13.5 µM; TGI [21]: 4.6 µM; TGI [22]: 21.8 µM; TGI [23]: 5.88 µM; TGI [24]: 7.98 µM; TGI [25]: > 100 µM; TGI [26]: 6.33 µM; TGI [27]: 8.21 µM; TGI [28]: 15.1 µM; TGI [29]: 8.18 µM; TGI [30]: 43600 nM; TGI [31]: 13.4 µM; TGI [32]: 10.3 µM; TGI [33]: 7.24 µM; TGI [34]: 6.74 µM; TGI [35]: 13.9 µM; TGI [36]: 7.62 µM; TGI [37]: 20 µM; TGI [38]: 27.1 µM; TGI [39]: 7.05 µM; TGI [40]: 15.8 µM; TGI [41]: 3.47 µM; TGI [42]: 11.4 µM; TGI [43]: 13.7 µM; TGI [44]: 2410 nM; TGI [45]: 8520 nM; TGI [46]: 22.6 µM; TGI [47]: 3.18 µM; TGI [48]: 6.73 µM; TGI [49]: 10.5 µM; TGI [50]: 34 µM; TGI [51]: 24.8 µM; TGI [52]: 3.62 µM; TGI [53]: 4.31 µM; TGI [54]: 13.4 µM; TGI [55]: 21.7 µM; TGI [56]: 24.8 µM; TGI [57]: 27.9 µM; TGI [58]: 4.47 µM; TGI [59]: 4.4 µM; TGI [60]: 17.4 µM; TGI [61]: 10 µM; TGI [62]: 44.1 µM; TGI [63]: 17700 nM; TGI [64]: 4.19 µM

Q: Which results are given for `COc1cc2c(cc1OC)-c1cc(OC)c(OC)cc1[C@H]1CN3CCC[C@@]3(O)C=C21`?
A: TGI [1]: 0.0126 µM; TGI [5]: < 0.1 nM; TGI [8]: 0.000139 µM; TGI [9]: 3.16 nM and 15.2 nM; TGI [18]: 0.0101 µM; TGI [20]: 0.000403 µM; TGI [24]: 0.000362 µM; TGI [26]: 0.000787 µM; TGI [28]: 0.000164 µM; TGI [29]: 0.000105 µM; TGI [30]: 106 nM and 414 nM; TGI [31]: 0.00164 µM; TGI [35]: 0.00253 µM; TGI [36]: 0.000267 µM; TGI [37]: < 0.0001 µM; TGI [42]: 0.161 µM; TGI [65]: 0.208 nM; TGI [44]: < 0.1 nM; TGI [45]: 101 nM and 52.1 nM; TGI [46]: 0.00117 µM; TGI [52]: < 0.0001 µM; TGI [54]: < 0.0001 µM; TGI [55]: < 0.0001 µM; TGI [57]: 0.0437 µM; TGI [63]: 3.2 nM and 11.7 nM

Q: Which TGI [1] does the source give for `COc1nc(=O)cc(N)n1C1OC(CO)C(O)C1O` (configuration not stated) here?
A: > 100 µM

Q: What about the TGI [2] of the same compound?
A: > 100 µM

Q: What about the TGI [3] of the same compound?
A: > 100 µM

Q: And the TGI [4]?
A: > 100 µM

Q: And the TGI [5]?
A: > 100000 nM

Q: And the TGI [6]?
A: > 100 µM

Q: What about the TGI [7] of the same compound?
A: > 100 µM

Q: And the TGI [8]?
A: > 100 µM

Q: And the TGI [9]?
A: > 100000 nM

Q: And the TGI [10]?
A: > 100 µM

Q: And the TGI [11]?
A: > 100 µM

Q: And the TGI [12]?
A: > 100 µM

Q: What about the TGI [13] of the same compound?
A: > 100 µM

Q: And the TGI [17]?
A: > 100 µM

Q: And the TGI [18]?
A: > 100 µM

Q: And the TGI [19]?
A: > 100 µM

Q: And the TGI [20]?
A: > 100 µM

Q: What about the TGI [21] of the same compound?
A: > 100 µM

Q: And the TGI [22]?
A: > 100 µM

Q: And the TGI [23]?
A: > 100 µM

Q: What about the TGI [24] of the same compound?
A: > 100 µM

Q: And the TGI [26]?
A: > 100 µM

Q: And the TGI [27]?
A: > 100 µM

Q: What about the TGI [29] of the same compound?
A: > 100 µM

Q: What about the TGI [30] of the same compound?
A: > 100000 nM

Q: And the TGI [31]?
A: > 100 µM

Q: What about the TGI [33] of the same compound?
A: > 100 µM

Q: What about the TGI [34] of the same compound?
A: > 100 µM

Q: And the TGI [35]?
A: > 100 µM

Q: And the TGI [36]?
A: > 100 µM

Q: What about the TGI [39] of the same compound?
A: > 100 µM

Q: What about the TGI [41] of the same compound?
A: > 100 µM

Q: And the TGI [42]?
A: > 100 µM

Q: And the TGI [43]?
A: > 100 µM

Q: What about the TGI [65] of the same compound?
A: > 100000 nM

Q: And the TGI [44]?
A: > 100000 nM

Q: And the TGI [45]?
A: > 100000 nM

Q: What about the TGI [46] of the same compound?
A: > 100 µM

Q: What about the TGI [48] of the same compound?
A: > 100 µM

Q: What about the TGI [49] of the same compound?
A: > 100 µM

Q: And the TGI [50]?
A: > 100 µM

Q: And the TGI [51]?
A: > 100 µM

Q: And the TGI [52]?
A: > 100 µM

Q: What about the TGI [53] of the same compound?
A: > 100 µM

Q: What about the TGI [54] of the same compound?
A: > 100 µM

Q: What about the TGI [55] of the same compound?
A: > 100 µM

Q: And the TGI [56]?
A: > 100 µM

Q: And the TGI [57]?
A: > 100 µM

Q: What about the TGI [58] of the same compound?
A: > 100 µM

Q: What about the TGI [59] of the same compound?
A: > 100 µM

Q: And the TGI [60]?
A: > 100 µM

Q: What about the TGI [62] of the same compound?
A: > 100 µM

Q: What about the TGI [64] of the same compound?
A: > 100 µM
